Reference: patent US20230416232A1, “PYRIMIDINE COMPOUNDS, COMPOSITIONS, AND MEDICINAL APPLICATIONS THEREOF” (Blueprint Medicines Corporation, priority 2020, published 2023)

Experiments:
Type in all cases: cell-based
[1] = target: EGFR(D770_N771insSVD) expressing Ba/F3 stable cell line (Homo sapiens, UniProt P00533, DUP768-770, cells depend on it); test: Cellular proliferation (Alamar Blue) assay, EGFR(D770_N771insSVD) Ba/F3; conditions: 72 hr, read-out: D770 IC50
Method in brief: (§1)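 Compound treatment lasted 72 h at 37 °C across a final 10-0.0005 μM range in 3-fold steps; cell growth was measured with Alamar Blue (3 h). Ba/F3 seeded at 15,000 and A431 at 5000 cells/well.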

[2] = target: EGFR (A767_dupASV) expressing Ba/F3 stable cell line (Homo sapiens, UniProt P00533, DUP767-769, cells depend on it); test: Cellular proliferation (Alamar Blue) assay, EGFR (A767_dupASV) Ba/F3; conditions: 72 hr, read-out: A767 IC50
Method in brief: as §1

A431 cells = test: Cellular proliferation (Alamar Blue) assay, A431 cells; conditions: Homo sapiens, A-431, 72 h, A431 cells; 72 hr; Alamar Blue; read-out: A431 IC50
Method in brief: as §1

[3] = target: EGFR (H773insNPH) expressing Ba/F3 stable cell line (Homo sapiens, UniProt P00533, DUP771-773, cells depend on it); test: Cellular proliferation (Alamar Blue) assay, EGFR (H773insNPH) Ba/F3; conditions: 72 hr, read-out: NPH IC50
Method in brief: as §1

[4] = target: HER2 (A775_G776insYVMA) expressing Ba/F3 stable cell line (Homo sapiens, UniProt P04626, DUP772-775, cells depend on it); test: Cellular proliferation (Alamar Blue) assay, HER2 (A775_G776insYVMA) Ba/F3; conditions: HER2 (A775_G776insYVMA) Ba/F3 cells; 72 hr; Alamar Blue; read-out: YVMA IC50
Method in brief: as §1

EGFR (H773insNPH) expressing Ba/F3 stable cell line, sequence (P00533 with tags, fused parts or gaps DUP771-773): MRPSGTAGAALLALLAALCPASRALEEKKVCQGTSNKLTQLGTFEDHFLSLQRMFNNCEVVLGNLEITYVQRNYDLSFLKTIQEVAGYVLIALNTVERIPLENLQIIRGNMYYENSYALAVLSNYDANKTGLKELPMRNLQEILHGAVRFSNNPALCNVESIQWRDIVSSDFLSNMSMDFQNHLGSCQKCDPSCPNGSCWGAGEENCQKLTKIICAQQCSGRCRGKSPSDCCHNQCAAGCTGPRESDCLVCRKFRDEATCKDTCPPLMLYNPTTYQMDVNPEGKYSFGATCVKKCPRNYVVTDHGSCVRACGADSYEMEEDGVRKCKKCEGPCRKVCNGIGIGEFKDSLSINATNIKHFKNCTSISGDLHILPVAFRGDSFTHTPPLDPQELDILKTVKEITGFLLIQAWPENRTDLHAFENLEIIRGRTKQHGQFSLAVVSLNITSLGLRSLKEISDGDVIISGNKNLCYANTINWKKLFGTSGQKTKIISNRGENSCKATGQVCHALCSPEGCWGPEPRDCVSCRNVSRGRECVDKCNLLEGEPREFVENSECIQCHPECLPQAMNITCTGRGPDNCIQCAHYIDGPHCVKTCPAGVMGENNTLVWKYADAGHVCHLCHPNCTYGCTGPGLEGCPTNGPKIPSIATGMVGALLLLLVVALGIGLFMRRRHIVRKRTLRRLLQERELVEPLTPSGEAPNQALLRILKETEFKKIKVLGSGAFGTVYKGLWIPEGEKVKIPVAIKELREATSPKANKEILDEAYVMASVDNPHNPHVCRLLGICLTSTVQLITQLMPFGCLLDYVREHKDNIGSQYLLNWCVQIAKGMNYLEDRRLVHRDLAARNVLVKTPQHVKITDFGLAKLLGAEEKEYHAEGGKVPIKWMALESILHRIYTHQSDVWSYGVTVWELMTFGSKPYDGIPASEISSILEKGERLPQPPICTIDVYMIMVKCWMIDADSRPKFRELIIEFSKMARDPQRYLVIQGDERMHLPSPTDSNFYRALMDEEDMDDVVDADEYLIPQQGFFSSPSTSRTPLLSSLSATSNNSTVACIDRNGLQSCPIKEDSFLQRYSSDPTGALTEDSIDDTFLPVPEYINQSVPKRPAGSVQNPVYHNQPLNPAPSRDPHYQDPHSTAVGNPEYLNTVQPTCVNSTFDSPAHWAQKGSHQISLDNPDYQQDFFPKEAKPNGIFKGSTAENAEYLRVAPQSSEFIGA
HER2 (A775_G776insYVMA) expressing Ba/F3 stable cell line, sequence (P04626 with tags, fused parts or gaps DUP772-775): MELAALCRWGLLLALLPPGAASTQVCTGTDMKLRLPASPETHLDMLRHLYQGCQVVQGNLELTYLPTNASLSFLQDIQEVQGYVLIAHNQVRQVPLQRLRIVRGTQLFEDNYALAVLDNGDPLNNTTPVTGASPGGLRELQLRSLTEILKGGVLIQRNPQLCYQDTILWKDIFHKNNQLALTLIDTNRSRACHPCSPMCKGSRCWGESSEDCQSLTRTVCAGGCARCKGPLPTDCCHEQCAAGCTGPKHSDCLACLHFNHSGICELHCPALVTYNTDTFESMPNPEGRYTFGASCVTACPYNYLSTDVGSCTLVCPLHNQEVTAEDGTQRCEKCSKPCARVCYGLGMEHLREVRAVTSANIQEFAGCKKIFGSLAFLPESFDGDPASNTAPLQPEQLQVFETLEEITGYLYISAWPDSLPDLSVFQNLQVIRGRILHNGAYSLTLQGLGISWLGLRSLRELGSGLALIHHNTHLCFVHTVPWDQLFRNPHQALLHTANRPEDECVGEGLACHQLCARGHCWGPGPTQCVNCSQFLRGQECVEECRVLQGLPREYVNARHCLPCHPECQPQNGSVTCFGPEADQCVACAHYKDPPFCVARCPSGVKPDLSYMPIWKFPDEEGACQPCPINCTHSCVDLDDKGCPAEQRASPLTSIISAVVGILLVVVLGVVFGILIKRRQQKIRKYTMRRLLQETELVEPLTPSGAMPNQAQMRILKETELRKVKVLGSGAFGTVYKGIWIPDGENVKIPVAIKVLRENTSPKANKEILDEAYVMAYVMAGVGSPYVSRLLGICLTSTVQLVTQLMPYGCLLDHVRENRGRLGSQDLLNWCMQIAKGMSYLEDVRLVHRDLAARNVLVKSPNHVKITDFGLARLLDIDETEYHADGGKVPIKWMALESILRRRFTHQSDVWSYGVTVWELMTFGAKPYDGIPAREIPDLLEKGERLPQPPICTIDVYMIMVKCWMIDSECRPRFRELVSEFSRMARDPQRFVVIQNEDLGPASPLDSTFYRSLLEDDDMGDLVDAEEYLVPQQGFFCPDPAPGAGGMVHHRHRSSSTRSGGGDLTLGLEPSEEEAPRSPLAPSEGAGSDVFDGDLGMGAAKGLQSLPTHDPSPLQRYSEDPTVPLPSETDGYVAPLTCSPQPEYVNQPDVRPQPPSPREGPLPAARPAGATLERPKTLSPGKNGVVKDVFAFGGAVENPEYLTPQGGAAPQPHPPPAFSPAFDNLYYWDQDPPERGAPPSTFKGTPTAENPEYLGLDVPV
EGFR(D770_N771insSVD) expressing Ba/F3 stable cell line, sequence (P00533 with tags, fused parts or gaps DUP768-770): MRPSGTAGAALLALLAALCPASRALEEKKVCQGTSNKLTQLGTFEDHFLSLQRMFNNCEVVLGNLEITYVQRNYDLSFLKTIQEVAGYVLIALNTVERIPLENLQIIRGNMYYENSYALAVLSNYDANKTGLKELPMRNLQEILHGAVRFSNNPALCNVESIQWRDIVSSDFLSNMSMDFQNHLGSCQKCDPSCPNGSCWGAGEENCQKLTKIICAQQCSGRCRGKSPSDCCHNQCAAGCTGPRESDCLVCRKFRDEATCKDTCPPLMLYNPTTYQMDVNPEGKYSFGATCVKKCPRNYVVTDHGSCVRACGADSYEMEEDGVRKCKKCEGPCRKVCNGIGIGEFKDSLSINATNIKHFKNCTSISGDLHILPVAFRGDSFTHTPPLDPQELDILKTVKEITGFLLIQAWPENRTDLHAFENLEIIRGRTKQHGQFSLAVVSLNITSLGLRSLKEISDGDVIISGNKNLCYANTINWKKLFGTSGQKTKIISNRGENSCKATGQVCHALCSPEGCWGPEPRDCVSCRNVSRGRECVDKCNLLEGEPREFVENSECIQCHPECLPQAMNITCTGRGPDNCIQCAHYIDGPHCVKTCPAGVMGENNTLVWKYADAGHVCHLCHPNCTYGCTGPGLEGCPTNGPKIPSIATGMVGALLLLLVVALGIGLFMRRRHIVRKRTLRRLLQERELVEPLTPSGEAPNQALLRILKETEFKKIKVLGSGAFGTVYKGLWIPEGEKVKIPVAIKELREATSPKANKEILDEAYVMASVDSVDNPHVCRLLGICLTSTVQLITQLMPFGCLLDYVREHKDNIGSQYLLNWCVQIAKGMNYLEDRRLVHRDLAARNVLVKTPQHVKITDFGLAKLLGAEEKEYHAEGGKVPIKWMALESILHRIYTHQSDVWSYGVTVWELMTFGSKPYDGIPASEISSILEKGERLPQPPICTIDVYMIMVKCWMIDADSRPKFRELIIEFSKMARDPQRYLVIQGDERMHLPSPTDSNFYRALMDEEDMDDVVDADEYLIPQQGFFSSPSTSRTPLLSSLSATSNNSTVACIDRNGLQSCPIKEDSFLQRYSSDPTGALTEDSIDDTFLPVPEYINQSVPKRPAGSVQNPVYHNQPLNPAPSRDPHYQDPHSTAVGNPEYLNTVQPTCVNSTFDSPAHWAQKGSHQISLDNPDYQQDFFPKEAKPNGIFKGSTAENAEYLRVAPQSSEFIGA
EGFR (A767_dupASV) expressing Ba/F3 stable cell line, sequence (P00533 with tags, fused parts or gaps DUP767-769): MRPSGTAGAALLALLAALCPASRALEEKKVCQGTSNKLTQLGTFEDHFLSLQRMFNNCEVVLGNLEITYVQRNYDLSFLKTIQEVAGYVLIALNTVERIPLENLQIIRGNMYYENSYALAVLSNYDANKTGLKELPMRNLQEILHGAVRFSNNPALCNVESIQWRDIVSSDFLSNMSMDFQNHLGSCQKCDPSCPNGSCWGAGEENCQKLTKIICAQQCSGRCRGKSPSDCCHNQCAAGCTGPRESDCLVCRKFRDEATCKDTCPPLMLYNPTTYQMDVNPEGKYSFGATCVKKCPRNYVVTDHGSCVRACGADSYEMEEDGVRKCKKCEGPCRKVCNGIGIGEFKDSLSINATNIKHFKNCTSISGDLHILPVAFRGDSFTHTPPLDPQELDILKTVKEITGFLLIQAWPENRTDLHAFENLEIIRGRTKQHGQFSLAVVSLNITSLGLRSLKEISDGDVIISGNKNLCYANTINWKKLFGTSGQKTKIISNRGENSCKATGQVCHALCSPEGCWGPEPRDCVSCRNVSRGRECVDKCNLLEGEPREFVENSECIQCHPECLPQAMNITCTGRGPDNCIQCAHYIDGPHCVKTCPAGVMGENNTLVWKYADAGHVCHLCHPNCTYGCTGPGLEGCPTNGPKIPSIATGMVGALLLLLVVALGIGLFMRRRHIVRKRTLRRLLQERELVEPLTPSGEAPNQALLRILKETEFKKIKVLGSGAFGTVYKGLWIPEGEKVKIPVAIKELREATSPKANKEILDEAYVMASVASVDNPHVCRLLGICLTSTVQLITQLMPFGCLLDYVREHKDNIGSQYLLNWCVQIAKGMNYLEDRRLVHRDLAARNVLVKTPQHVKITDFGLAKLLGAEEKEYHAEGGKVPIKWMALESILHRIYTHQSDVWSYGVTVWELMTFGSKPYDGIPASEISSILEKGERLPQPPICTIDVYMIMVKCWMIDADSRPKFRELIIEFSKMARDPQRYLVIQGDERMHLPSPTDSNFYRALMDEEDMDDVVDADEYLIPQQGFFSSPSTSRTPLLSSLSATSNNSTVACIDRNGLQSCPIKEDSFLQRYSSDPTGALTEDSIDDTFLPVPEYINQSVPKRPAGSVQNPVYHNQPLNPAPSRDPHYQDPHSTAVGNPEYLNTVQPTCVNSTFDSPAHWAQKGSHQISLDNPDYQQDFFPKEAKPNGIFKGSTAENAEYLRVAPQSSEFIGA

GI50 [1] | GI50 [2] | IC50 (A431 cells) | GI50 [3] | GI50 [4] | Structure (SMILES)
25 nM | 28 nM | 37 nM | 96 nM | 56 nM | C=CC(=O)Nc1ccc(F)c(Nc2nc(Nc3cnn(CCO)c3)ncc2-c2ccc(Br)c(F)c2)c1 [Compound 96, N-(3-((5-(4-bromo-3-fluorophenyl)-2-((1-(2-hydroxyethyl)-1H-pyrazol-4-yl)amino)pyrimidin-4-yl)amino)-4-fluorophenyl)acrylamide]
36 nM | 104 nM | 990 nM | 153 nM | 252 nM | C=CC(=O)Nc1ccc(F)c(Oc2nc(Nc3cnn(C)c3)ncc2-c2ccc(Cl)c(F)c2)c1 [Compound 98, N-(3-{[5-(4-chloro-3-fluorophenyl)-2-[(1-methyl-1H-pyrazol-4-yl)amino]pyrimidin-4-yl]oxy}-4-fluorophenyl) prop-2-enamide]
